From ChEMBL document CHEMBL4346705, “(±)-trans-Dihydronarciclasine and (±)-trans-dihydrolycoricidine analogues modified in their ring A: Evaluation of their anticancer activity and a SAR study” (2019)

Legend:
Type in all cases: functional
NCI/ADR-RES = test: Antiproliferative activity against human NCI-ADR-RES cells assessed as cell viability at 10^-5 M incubated for 48 hrs by sulforhodamine B assay relative to control; conditions: read-out: Activity
DU-145 = test: Antiproliferative activity against human DU145 cells assessed as cell viability at 10^-5 M incubated for 48 hrs by sulforhodamine B assay relative to control; conditions: DU-145, 48 h, read-out: Activity
T47D = test: Antiproliferative activity against human T47D cells assessed as cell viability at 10^-5 M incubated for 48 hrs by sulforhodamine B assay relative to control; conditions: read-out: Activity
HOP-62 = test: Antiproliferative activity against human HOP62 cells assessed as cell viability at 10^-5 M incubated for 48 hrs by sulforhodamine B assay relative to control; conditions: HOP-62, 48 h, read-out: Activity
ACHN = test: Antiproliferative activity against human ACHN cells assessed as cell viability at 10^-5 M incubated for 48 hrs by sulforhodamine B assay relative to control; conditions: read-out: Activity
SF-295 = test: Antiproliferative activity against human SF295 cells assessed as cell viability at 10^-5 M incubated for 48 hrs by sulforhodamine B assay relative to control; conditions: SF-295, 48 h, read-out: Activity
SW-620 = test: Antiproliferative activity against human SW620 cells assessed as cell viability at 10^-5 M incubated for 48 hrs by sulforhodamine B assay relative to control; conditions: SW-620, 48 h, read-out: Activity
NCI-H226 = test: Antiproliferative activity against human NCI-H226 cells assessed as cell viability at 10^-5 M incubated for 48 hrs by sulforhodamine B assay relative to control; conditions: NCI-H226, 48 h, read-out: Activity
SR = test: Antiproliferative activity against human SR cells assessed as cell viability at 10^-5 M incubated for 48 hrs by sulforhodamine B assay relative to control; conditions: read-out: Activity
RPMI-8226 = test: Antiproliferative activity against human RPMI8226 cells assessed as cell viability at 10^-5 M incubated for 48 hrs by sulforhodamine B assay relative to control; conditions: RPMI-8226, 48 h, read-out: Activity
M14 = test: Antiproliferative activity against human M14 cells assessed as cell viability at 10^-5 M incubated for 48 hrs by sulforhodamine B assay relative to control; conditions: M14, 48 h, read-out: Activity
OVCAR-8 = test: Antiproliferative activity against human OVCAR8 cells assessed as cell viability at 10^-5 M incubated for 48 hrs by sulforhodamine B assay relative to control; conditions: OVCAR-8, 48 h, read-out: Activity
HL-60(TB) = test: Antiproliferative activity against human HL-60(TB) cells assessed as cell viability at 10^-5 M incubated for 48 hrs by sulforhodamine B assay relative to control; conditions: HL-60, 48 h, read-out: Activity
MOLT-4 = test: Antiproliferative activity against human MOLT4 cells assessed as cell viability at 10^-5 M incubated for 48 hrs by sulforhodamine B assay relative to control; conditions: MOLT-4, 48 h, read-out: Activity
NCI-H322M = test: Antiproliferative activity against human NCI-H322M cells assessed as cell viability at 10^-5 M incubated for 48 hrs by sulforhodamine B assay relative to control; conditions: read-out: Activity
IGROV-1 = test: Antiproliferative activity against human IGROV1 cells assessed as cell viability at 10^-5 M incubated for 48 hrs by sulforhodamine B assay relative to control; conditions: IGROV-1, 48 h, read-out: Activity
EKVX = test: Antiproliferative activity against human EKVX cells assessed as cell viability at 10^-5 M incubated for 48 hrs by sulforhodamine B assay relative to control; conditions: read-out: Activity
SF-539 = test: Antiproliferative activity against human SF539 cells assessed as cell viability at 10^-5 M incubated for 48 hrs by sulforhodamine B assay relative to control; conditions: SF-539, 48 h, read-out: Activity
OVCAR-3 = test: Antiproliferative activity against human OVCAR3 cells assessed as cell viability at 10^-5 M incubated for 48 hrs by sulforhodamine B assay relative to control; conditions: OVCAR-3, 48 h, read-out: Activity
KM12 = test: Antiproliferative activity against human KM12 cells assessed as cell viability at 10^-5 M incubated for 48 hrs by sulforhodamine B assay relative to control; conditions: KM12, 48 h, read-out: Activity
TK-10 = test: Antiproliferative activity against human TK10 cells assessed as cell viability at 10^-5 M incubated for 48 hrs by sulforhodamine B assay relative to control; conditions: TK-10, 48 h, read-out: Activity
HCC 2998 = test: Antiproliferative activity against human HCC2998 cells assessed as cell viability at 10^-5 M incubated for 48 hrs by sulforhodamine B assay relative to control; conditions: HCC 2998, 48 h, read-out: Activity
SK-MEL-2 = test: Antiproliferative activity against human SK-MEL-2 cells assessed as cell viability at 10^-5 M incubated for 48 hrs by sulforhodamine B assay relative to control; conditions: SK-MEL-2, 48 h, read-out: Activity
Hs-578T = test: Antiproliferative activity against human Hs 578T cells assessed as cell viability at 10^-5 M incubated for 48 hrs by sulforhodamine B assay relative to control; conditions: read-out: Activity
SNB-75 = test: Antiproliferative activity against human SNB75 cells assessed as cell viability at 10^-5 M incubated for 48 hrs by sulforhodamine B assay relative to control; conditions: SNB-75, 48 h, read-out: Activity
MCF7 = test: Antiproliferative activity against human MCF7 cells assessed as cell viability at 10^-5 M incubated for 48 hrs by sulforhodamine B assay relative to control; conditions: MCF7, 48 h, read-out: Activity
SF-268 = test: Antiproliferative activity against human SF268 cells assessed as cell viability at 10^-5 M incubated for 48 hrs by sulforhodamine B assay relative to control; conditions: SF-268, 48 h, read-out: Activity
SN12C = test: Antiproliferative activity against human SN12C cells assessed as cell viability at 10^-5 M incubated for 48 hrs by sulforhodamine B assay relative to control; conditions: read-out: Activity
UO-31 = test: Antiproliferative activity against human UO31 cells assessed as cell viability at 10^-5 M incubated for 48 hrs by sulforhodamine B assay relative to control; conditions: UO-31, 48 h, read-out: Activity
CCRF-CEM = test: Antiproliferative activity against human CCRF-CEM cells assessed as cell viability at 10^-5 M incubated for 48 hrs by sulforhodamine B assay relative to control; conditions: read-out: Activity
PC-3 = test: Antiproliferative activity against human PC3 cells assessed as cell viability at 10^-5 M incubated for 48 hrs by sulforhodamine B assay relative to control; conditions: PC-3, 48 h, read-out: Activity
NCI-H522 = test: Antiproliferative activity against human NCI-H522 cells assessed as cell viability at 10^-5 M incubated for 48 hrs by sulforhodamine B assay relative to control; conditions: NCI-H522, 48 h, read-out: Activity
MDA-MB-435 = test: Antiproliferative activity against human MDA-MB-435 cells assessed as cell viability at 10^-5 M incubated for 48 hrs by sulforhodamine B assay relative to control; conditions: MDA-MB-435, 48 h, read-out: Activity

SMILES | viability at 10 µM (NCI/ADR-RES) [%] | viability at 10 µM (DU-145) [%] | viability at 10 µM (T47D) [%] | viability at 10 µM (HOP-62) [%] | viability at 10 µM (ACHN) [%] | viability at 10 µM (SF-295) [%] | viability at 10 µM (SW-620) [%] | viability at 10 µM (NCI-H226) [%] | viability at 10 µM (SR) [%] | viability at 10 µM (RPMI-8226) [%] | viability at 10 µM (M14) [%] | viability at 10 µM (OVCAR-8) [%] | viability at 10 µM (HL-60(TB)) [%] | viability at 10 µM (MOLT-4) [%] | viability at 10 µM (NCI-H322M) [%] | viability at 10 µM (IGROV-1) [%] | viability at 10 µM (EKVX) [%] | viability at 10 µM (SF-539) [%] | viability at 10 µM (OVCAR-3) [%] | viability at 10 µM (KM12) [%] | other results
O=C1NC2C(CC(O)C(O)C2O)c2cc3c(c(O)c21)OCCO3 (racemic) | -0.44 | -2.39 | -15.8 | -26.5 | -14.5 | -14.9 | 4.85 | -11.3 | -2.37 | -28.1 | -45.8 | -13.8 | -18.8 | -0.8 | -24.3 | -16.7 | -14.3 | -24.1 | -13 | -2.6 | viability at 10 µM (TK-10): -11.9%; viability at 10 µM (HCC 2998): -46.2%; viability at 10 µM (SK-MEL-2): -48.7%; viability at 10 µM (Hs-578T): -9.44%; viability at 10 µM (SNB-75): -4.29%; viability at 10 µM (MCF7): -13.3%; viability at 10 µM (SF-268): -0.71%; viability at 10 µM (SN12C): -9.95%; viability at 10 µM (UO-31): -19.7%; viability at 10 µM (CCRF-CEM): -6.07%; viability at 10 µM (PC-3): -9.66%; viability at 10 µM (NCI-H522): -36.1%; viability at 10 µM (MDA-MB-435): 1.45%
COc1c2c(cc3c1C(=O)NC1C3CC(O)C(O)C1O)OCCO2 (racemic) | 113 | 107 | 84.9 | 99.9 | 103 | 99.6 | 104 | 92.7 | 92.1 | 102 | 105 | 100 | 95.4 | 99.6 | 93.5 | 109 | 98.2 | 106 | 104 | 99.1 | viability at 10 µM (TK-10): 95.7%; viability at 10 µM (HCC 2998): 106%; viability at 10 µM (SK-MEL-2): 100%; viability at 10 µM (Hs-578T): 96.2%; viability at 10 µM (SNB-75): 99.3%; viability at 10 µM (MCF7): 93.9%; viability at 10 µM (SF-268): 97.9%; viability at 10 µM (SN12C): 103%; viability at 10 µM (UO-31): 86.4%; viability at 10 µM (CCRF-CEM): 105%; viability at 10 µM (PC-3): 97.7%; viability at 10 µM (NCI-H522): 93.5%; viability at 10 µM (MDA-MB-435): 108%
O=C1NC2C(CC(O)C(O)C2O)c2cc3c(cc21)OCCO3 (racemic) | 107 | 114 | 104 | 103 | 105 | 101 | 104 | 97.7 | 107 | 107 | 98.9 | 107 | 101 | 103 | 104 | 103 | 97.4 | 101 | 111 | 108 | viability at 10 µM (TK-10): 103%; viability at 10 µM (HCC 2998): 109%; viability at 10 µM (SK-MEL-2): 109%; viability at 10 µM (Hs-578T): 96.9%; viability at 10 µM (SNB-75): 98.3%; viability at 10 µM (MCF7): 98.6%; viability at 10 µM (SF-268): 101%; viability at 10 µM (SN12C): 105%; viability at 10 µM (UO-31): 93.2%; viability at 10 µM (CCRF-CEM): 106%; viability at 10 µM (PC-3): 103%; viability at 10 µM (NCI-H522): 101%; viability at 10 µM (MDA-MB-435): 107%
